Reference: US6960582B2, “Guanidino compounds” (Chiron Corporation, priority 2001, dated 2005)

What follows are compounds tested against MC4-R (Homo sapiens, UniProt P32245) (assay: cAMP Scintillation Proximity Assay (SPA) in cells expressing MC4-R). Conditions: intercellular cAMP concentration by SPA kit, read-out: in vitro potency (as measured by EC50 value).
Assay type: cell-based
Procedure: EC50 values of test compounds were determined by treating cells expressing MC4-R with test compound and lysing the cells and measuring intercellular cAMP concentration with an Amersham-Pharmacia RPA-559 cAMP Scintillation Proximity Assay (SPA) kit. The following compounds were synthesized and tested according to this assay. The following compounds are merely illustrative and should not be construed as limiting of the instant invention.

Chain of MC4-R (P32245 whole entry, species assumed): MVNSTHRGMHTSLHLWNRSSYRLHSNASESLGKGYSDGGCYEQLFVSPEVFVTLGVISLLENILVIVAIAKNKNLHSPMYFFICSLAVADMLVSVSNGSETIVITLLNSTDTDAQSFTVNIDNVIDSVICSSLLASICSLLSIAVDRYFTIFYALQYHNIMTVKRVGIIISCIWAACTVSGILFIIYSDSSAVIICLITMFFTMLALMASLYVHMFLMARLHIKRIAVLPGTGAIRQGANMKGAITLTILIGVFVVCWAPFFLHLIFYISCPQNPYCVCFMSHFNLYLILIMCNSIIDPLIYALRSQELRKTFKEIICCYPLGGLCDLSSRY

SMILES | EC50 [µM]
C[C@@H]1[C@@H](N=C(Nc2ccc3c(c2)C(=O)N(Cc2ccc(Cl)cc2Cl)C3=O)N2CCN[C@@H](C)C2)C[C@H]2C[C@@H]1C2(C)C [Example 4, (3S)-N-[2-(2,4-dichlorobenzyl)-1,3-dioxo-2,3-dihydro-1H-isoindol-5-yl]-3-methyl-N′-[(1S,2S,3S,5R)-2,6,6-trimethylbicyclo[3.1.1]hept-3-yl]piperazine-1-carboximidamide] | < 3
C[C@@H]1[C@@H](N=C(Nc2ccc3c(c2)C(=O)N([C@@H](CO)Cc2ccccc2)C3=O)N2CCN[C@@H](C)C2)C[C@H]2C[C@@H]1C2(C)C [Example 6, (3S)-N-{2-[(1R)-1-benzyl-2-hydroxyethyl]-1,3-dioxo-2,3-dihydro-1H-isoindol-5-yl}-3-methyl-N′-[(1S,2S,3S,5R)-2,6,6-trimethylbicyclo[3.1.1]hept-3-yl]piperazine-1-carboximidamide] | < 3
C[C@@H]1[C@@H](N=C(Nc2ccc3c(c2)C(=O)N(CCc2ccc(F)cc2F)C3=O)N2CCN[C@@H](C)C2)C[C@H]2C[C@@H]1C2(C)C [Example 11, (3S)-N-{2-[2-(2,4-difluorophenyl)ethyl]-1,3-dioxo-2,3-dihydro-1H-isoindol-5yl}-3-methyl-N′-[(1S,2S,3S,5R)-2,6,6-trimethylbicyclo[3.1.1]hept-3-yl]piperazine-1-carboximidamide] | < 3
C[C@@H]1[C@@H](N=C(Nc2ccc3c(c2)C(=O)N([C@H](CO)[C@H](O)c2ccccc2)C3=O)N2CCN[C@@H](C)C2)C[C@H]2C[C@@H]1C2(C)C [Example 15, (3S)-N-{2-[(1R,2R)-2-hydroxy-1-(hydroxymethyl)-2-phenylethyl]-1,3-dioxo-2,3-dihydro-1H-isoindol-5-yl}-3-methyl-N′-[(1S,2S,3S,5R)-2,6,6-trimethylbicyclo[3.1.1]hept-3-yl]piperazine-1-carboximidamide] | < 3
C[C@@H]1[C@@H](N=C(Nc2ccc3c(c2)C(=O)N([C@@H](CO)[C@@H](O)c2ccccc2)C3=O)N2CCN[C@@H](C)C2)C[C@H]2C[C@@H]1C2(C)C [Example 14, (3S)-N-{2-[(1S ,2S)-2-hydroxy-1-(hydroxymethyl)-2-phenylethyl]-1,3-dioxo-2,3-dihydro-1H-isoindol-5yl}-3-methyl-N′-[(1S,2S,3S,5R)-2,6,6-trimethylbicyclo[3.1.1]hept-3-yl]piperazine-1-carboximidamide] | < 3
C[C@@H]1[C@@H](N=C(Nc2ccc3c(c2)C(=O)N(CCc2ccc(Cl)cc2Cl)C3)N2CCN[C@@H](C)C2)C[C@H]2C[C@@H]1C2(C)C [Example 3, (3S )-N-{2-[2-(2,4-dichlorophenyl)ethyl]-3-oxo-2,3-dihydro-1H-isoindol-5-yl}-3-methyl-N′-[(1S,2S,3S,5R)-2,6,6-trimethylbicyclo[3.1.1]hept-3-yl]piperazine-1-carboximidamide] | < 3
C[C@@H]1[C@@H](N=C(Nc2ccc3c(c2)C(=O)N([C@H](CO)Cc2ccc(Cl)cc2Cl)C3=O)N2CCN[C@@H](C)C2)C[C@H]2C[C@@H]1C2(C)C [Example 8, (3S )-N-{2-[(1S)-1-(2,4-dichlorobenzyl)-2-hydroxyethyl]-1,3-dioxo-2,3-dihydro-1H-isoindol-5yl}-3-methyl-N′-[(1S,2S,3S,5R)-2,6,6-trimethylbicyclo[3.1.1]hept-3-yl]piperazine-1-carboximidamide] | < 3
C[C@@H]1[C@@H](N=C(Nc2ccc3c(c2)CN(CCc2ccc(Cl)cc2Cl)C3=O)N2CCN[C@@H](C)C2)C[C@H]2C[C@@H]1C2(C)C [Example 1, (3S)-N-{2-[2-(2,4-dichlorophenyl)ethyl]-1-oxo-2,3-dihydro-1H-isoindol-5-yl}-3-methyl-N′-[(1S,2S,3S,5R)-2,6,6-trimethylbicyclo[3.1.1]hept-3-yl]piperazine-1-carboximidamide] | < 3
COc1ccc(CCN2C(=O)c3ccc(NC(=N[C@H]4C[C@H]5C[C@@H]([C@@H]4C)C5(C)C)N4CCN[C@@H](C)C4)cc3C2=O)c(F)c1 [Example 10, (3S)-N-{2-[2-(2-fluoro-4-methoxyphenyl)ethyl]-1,3-dioxo-2,3-dihydro-1H-isoindol-5yl}-3-methyl-N′-[(1S,2S,3S,5R)-2,6,6-trimethylbicyclo[3.1.1]hept-3-yl]piperazine-1-carboximidamide] | < 3

Results, then the compound that gave them:

EC50 [µM] | SMILES
< 3 | C[C@@H]1[C@@H](N=C(Nc2ccc3c(c2)C(=O)N([C@@H](CO)[C@H](O)c2ccccc2)C3=O)N2CCN[C@@H](C)C2)C[C@H]2C[C@@H]1C2(C)C [Example 16, (3S )-N-{2-[(1S,2R)-2-hydroxy-1-(hydroxymethyl)-2-phenylethyl]-1,3-dioxo-2,3-dixo-2,3-dihydro-1H-isoindol-5-yl}-3-methyl-N′-[(1S,2S,3S,5R)-2,6,6-trimethylbicyclo[3.1.1]hept-3-yl]piperazine-1-carboximidamide]
< 3 | Cc1ccc(CCN2Cc3ccc(NC(=N[C@H]4C[C@H]5C[C@@H]([C@@H]4C)C5(C)C)N4CCN[C@@H](C)C4)cc3C2=O)c(C)c1 [Example 21, (3S)-N-{2-[2-(2,4-dimethylphenyl)ethyl]-3-oxo-2,3-dihydro-1H-isoindol-5-yl}-3-methyl-N′-[(1S,2S,3S,5R)-2,6,6-trimethylbicyclo[3.1.1]hept-3-yl]piperazine-1-carboximidamide]
< 3 | C[C@@H]1[C@@H](N=C(Nc2ccc3c(c2)C(=O)N(CCc2ccc(F)cc2F)C3)N2CCN[C@@H](C)C2)C[C@H]2C[C@@H]1C2(C)C [Example 19, (3S)-N-{2-[2-(2,4-difluorophenyl)ethyl]-3-oxo-2,3-dihydro-1H-isoindol-5-yl}-3-methyl-N′-[(1S,2S,3S,5R)-2,6,6-trimethylbicyclo[3.1.1]hept-3-yl]piperazine-1-carboximidamide]
< 3 | C[C@@H]1[C@@H](N=C(Nc2ccc3c(c2)CCN(CCc2ccc(Cl)cc2Cl)C3=O)N2CCN[C@@H](C)C2)C[C@H]2C[C@@H]1C2(C)C [Example 22, (3S)-N-{2-[2-(2,4-dichlorophenyl)ethyl]-1-oxo-1,2,3,4-tetrahydroisoquinolin-6-yl}-3-methyl-N′-[(1S,2S,3S,5R)-2,6,6-trimethylbicyclo[3.1.1]hept-3-yl]piperazine-1-carboximidamide]
< 3 | C[C@@H]1[C@@H](/N=C(\Nc2ccc3[nH]c(CCc4ccc(Cl)cc4Cl)nc3c2)N2CCN[C@@H](C)C2)C[C@H]2C[C@@H]1C2(C)C [Example 23, (3S)-N-{2-[2-(2,4-dichlorophenyl)ethyl]-1H-benzimidazol-5-yl}-3-methyl-N′-[(1S,2S,3S,5R)-2,6,6-trimethylbicyclo[3.1.1]hept-3-yl]piperazine-1-carboximidamide]
